Data on three molecules can be found in US10793559B2, “Chemical compounds” (GlaxoSmithKline Intellectual Property Development Limited, priority 2016, dated 2020).

In one experiment the target is PI3K-Delta (Homo sapiens, UniProt O00329). The experiment can be described thus: PI3K HTRF assay (PI3K Delta). The class given is biochemical. Conditions: PI3K-Delta 1.5 nM, 80 μM ATP, 10 μM PIP2 final, read-out: mean pIC50 in the PI3K Delta assay (converted). The method, then: Biological Data PI3K HTRF Assay
The binding of compounds to PI3K-alpha/beta/delta/gamma is determined by homogeneous time resolved fluorescence (HTRF) assays as follows;
Briefly, solid compound is dissolved in 100% DMSO at a concentration of 2 mM. Dilutions are prepared in 100% DMSO using a 1 in 4 serial step dilution. The dilutions are transferred to black low volume Greiner assay plates ensuring that the DMSO concentration is constant across the plate at 1% (0.1 ul/well).
PI3K Reaction Buffer (contains 50 mM HEPES pH7.0 (NaOH), 150 mM NaCl, 10 mM MgCl2, 2.3 mM sodium cholate, 10 μM CHAPS made up in milliQ water). Fresh DTT is added at a final concentration of 1 mM on the day of use. Wortmannin at a concentration sufficient to produce 100% inhibition (8.33e-6 M) is added to column 18 of compound plates.
Enzyme solutions: 1× PI3K assay Buffer containing: • 550 pM PI3K-Alpha enzyme (275 pM final assay concentration) • 800 pM PI3K-Beta enzyme (400 pM final assay concentration) • 3 nM PI3K-Delta enzyme (1.5 nM final assay concentration) • 10 nM PI3K-Gamma enzyme (5 nM final assay concentration)
These concentrations are optimal to achieve a signal:background of between 1.5-4.5. The enzyme solution is added to columns 1-24 (3 ul/well) and plates are incubated for 15 minutes at room temperature.
Substrate solution: 1× PI3K assay buffer containing: • PI3K-Alpha: 500 μM ATP, 20 μM PIP2 and 120 nM biotin-PIP3. (Final assay concentrations are 250 μM ATP, 10 μM PIP2 (both at Km) and 40 nM biotin-PIP3) • PI3K-Beta: 800 μM ATP, 20 μM PIP2 and 120 nM biotin-PIP3. (Final assay concentrations are 400 μM ATP, 10 μM PIP2 (both at Km) and 40 nM biotin-PIP3) • PI3K-Delta: […], 20 μM PIP2 and 120 nM biotin-PIP3. (Final assay concentrations are 80 μM ATP, 10 μM PIP2 (both at Km) and 40 nM biotin-PIP3) • PI3K-Gamma: 30 μM ATP, 20 μM PIP2 and 120 nM biotin-PIP3.
This is added to all wells and plates are incubated for 1 hour at room temperature.
Detection solution: PI3K Detection Buffer (contains 50 mM HEPES pH7.0 (HCl), 150 mM NaCl, 2.3 mM sodium cholate, 10 μM CHAPS, 240 mM potassium fluoride) containing 2 mM DTT (2× final concentration), 90 nM GRP-1 PH domain, 300 nM Streptavidin-APC and 24 nM Europium-anti-GST (6× final concentrations)
This is mixed left at room temperature (protected from light).
STOP solution: PI3K STOP Buffer (contains 50 mM HEPES pH7.0 (HCl), 150 mM NaCl, 2.3 mM sodium cholate, 10 μM CHAPS, 150 mM EDTA).
Detection solution is diluted 1:1 with STOP solution and added to all wells (3 ul/well). Plates are covered and incubated on the bench for 45-60 minutes. Plates are read on a PerkinElmer Envision, measuring TR-FRET between the complex formed between the GST-tagged PH domain and biotinylated PIP3 which both recruit fluorophores (Europium-labelled anti-GST & Strep-APC respectively). […], this complex is disrupted by the competitive action of non-biotinylated PIP3 (formed in the assay by the phosphorylation of PIP2 by the kinase & ATP). From this, the ratio of acceptor/donor was calculated (Aex=317 nm, Aem donor=615 nm, em acceptor=665 nm) and used for data analysis.
On the technique in general: TR-FRET usually uses a lanthanide donor and a delayed reading to cut background.

In experiment [1] the test system is amphetamine-induced psychosis. Conditions: Law et al. 2012; cited from earlier work.

Chain of PI3K-Delta (O00329 whole entry): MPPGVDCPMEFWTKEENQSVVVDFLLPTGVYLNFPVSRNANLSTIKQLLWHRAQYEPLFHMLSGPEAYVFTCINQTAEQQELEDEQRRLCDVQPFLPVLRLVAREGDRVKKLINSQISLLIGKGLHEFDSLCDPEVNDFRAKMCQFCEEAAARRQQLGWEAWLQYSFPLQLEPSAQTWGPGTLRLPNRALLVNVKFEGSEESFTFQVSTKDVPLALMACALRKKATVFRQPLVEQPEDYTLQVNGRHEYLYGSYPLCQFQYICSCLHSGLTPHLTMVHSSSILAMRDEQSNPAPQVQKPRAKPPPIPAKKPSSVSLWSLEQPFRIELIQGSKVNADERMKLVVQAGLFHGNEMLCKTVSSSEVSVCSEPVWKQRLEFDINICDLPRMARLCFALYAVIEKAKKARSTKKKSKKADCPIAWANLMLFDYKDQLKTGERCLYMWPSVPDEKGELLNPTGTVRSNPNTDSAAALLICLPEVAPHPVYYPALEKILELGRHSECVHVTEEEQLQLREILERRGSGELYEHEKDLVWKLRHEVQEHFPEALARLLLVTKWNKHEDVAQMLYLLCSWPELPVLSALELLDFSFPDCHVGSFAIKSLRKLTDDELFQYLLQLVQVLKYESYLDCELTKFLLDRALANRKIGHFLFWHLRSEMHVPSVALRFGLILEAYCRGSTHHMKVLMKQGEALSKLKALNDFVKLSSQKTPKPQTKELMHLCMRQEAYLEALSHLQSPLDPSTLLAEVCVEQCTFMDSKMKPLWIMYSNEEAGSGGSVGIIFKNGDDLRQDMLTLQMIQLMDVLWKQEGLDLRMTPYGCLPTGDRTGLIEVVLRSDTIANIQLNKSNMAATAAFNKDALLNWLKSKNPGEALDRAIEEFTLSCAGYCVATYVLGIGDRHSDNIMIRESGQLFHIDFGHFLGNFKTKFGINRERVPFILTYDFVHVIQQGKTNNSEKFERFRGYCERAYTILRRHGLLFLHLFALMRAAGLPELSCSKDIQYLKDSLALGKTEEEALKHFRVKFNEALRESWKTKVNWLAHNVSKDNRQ
Chain of PI3K-Delta (P27986 whole entry partner): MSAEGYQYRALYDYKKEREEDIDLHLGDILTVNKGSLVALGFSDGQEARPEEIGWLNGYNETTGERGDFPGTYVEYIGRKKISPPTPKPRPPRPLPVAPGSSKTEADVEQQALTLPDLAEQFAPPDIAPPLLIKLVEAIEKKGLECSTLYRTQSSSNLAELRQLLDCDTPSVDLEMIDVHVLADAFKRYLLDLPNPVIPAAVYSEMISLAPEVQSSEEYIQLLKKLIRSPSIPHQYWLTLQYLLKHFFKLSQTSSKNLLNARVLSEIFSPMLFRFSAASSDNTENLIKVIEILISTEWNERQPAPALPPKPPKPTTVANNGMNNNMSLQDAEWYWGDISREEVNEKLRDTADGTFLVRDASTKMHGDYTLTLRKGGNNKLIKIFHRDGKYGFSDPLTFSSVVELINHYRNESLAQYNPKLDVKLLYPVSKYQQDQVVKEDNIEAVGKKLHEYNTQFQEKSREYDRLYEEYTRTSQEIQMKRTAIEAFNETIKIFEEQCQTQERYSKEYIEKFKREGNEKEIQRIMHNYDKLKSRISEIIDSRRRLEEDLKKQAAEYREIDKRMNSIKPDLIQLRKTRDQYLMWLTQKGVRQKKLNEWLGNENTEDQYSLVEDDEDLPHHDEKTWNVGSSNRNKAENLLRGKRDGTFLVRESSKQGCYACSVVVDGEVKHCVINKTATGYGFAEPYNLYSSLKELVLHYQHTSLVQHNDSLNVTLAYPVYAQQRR

As to `COc1ncc(N2CCOCC2)cc1S(=O)(=O)Nc1ccnc(-c2ccc(CN3C[C@@H](C)O[C@@H](C)C3)cc2F)c1` [Example 36, Rac-N-(2-(4-(((2S,6R)-2,6-dimethylmorpholino)methyl)-2-fluorophenyl)pyridin-4-yl)-2-methoxy-5-morpholinopyridine-3-sulfonamide], at PI3K-Delta, the IC50 is not above 3.16 nM.
The same measure, in the same setting: the figure for `CCOc1ncc(N2CCOCC2)cc1S(=O)(=O)Nc1ccnc(-c2ccc(CN3C[C@@H](C)O[C@@H](C)C3)cc2F)c1` [Example 37, Rac-N-(2-(4-(((2S,6R)-2,6-dimethylmorpholino)methyl)-2-fluorophenyl)pyridin-4-yl)-2-ethoxy-5-morpholinopyridine-3-sulfonamide] is not above 3.16 nM.
As for `Cc1ccccc1-n1c(Cn2cnc3c(N)ncnc32)nc2cccc(C)c2c1=O` [IC87114], the “efficacy in a mouse model of amphetamine-induced psychosis” value in experiment [1] is recorded as “remarkable efficacy”.
